What all share (format): cell-based
One experiment concerns the target T1, mouse PPAR α (Mus musculus, UniProt P23204).
T1 construct: expressed in transfected cells; host or cells: HEK293T
T1 sequence (P23204 239-466 limits assumed): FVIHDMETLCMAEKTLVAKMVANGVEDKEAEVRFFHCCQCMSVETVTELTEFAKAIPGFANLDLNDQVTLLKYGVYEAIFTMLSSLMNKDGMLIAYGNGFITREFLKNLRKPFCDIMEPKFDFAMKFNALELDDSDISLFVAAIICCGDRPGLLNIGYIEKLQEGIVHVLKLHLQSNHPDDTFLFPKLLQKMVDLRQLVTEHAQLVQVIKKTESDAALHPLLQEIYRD
The experiment is described as follows: PPAR alpha transactivation (GAL4 chimeric receptor luciferase reporter) assay. Particulars: pFR-Luc reporter, HEK293T cells, 20 hours incubation, read-out: Gene Activation Assay: EC50 (<10 μM) PPAR alpha. From the text:
(§1) Measurement of PPARγ, δ, and α Transactivation Activity.
(§2) Chimeric receptors were constructed in which the yeast transcription factor GAL4 DNA binding domain was fused to the ligand binding domain of either mouse PPARγ, mouse PPARδ or mouse PPAR α in order to assess the ability of the compounds of the present invention to activate gene expression in a PPAR-dependent manner. The chimeric receptor expression plasmids (GAL4-mPPARγ, GAL4-mPPAR δ and GAL4-PPAR α) and the reporter plasmid containing 5×GAL4 binding site (pFR-Luc, obtained from Stratagene) were transfected into HEK293T cells using the Lipofectamine 2000 reagent (Invitrogen), according to the manufacturers instructions. Six hours after transfection, the culture medium was renewed and the cells were incubated for 20 hours in presence of either 1) DMSO (vehicle), 2) a compound of the invention or 3) a reference compound for comparison. Rosiglitazone (obtained from WDF Pharma) was used as a reference compound for the PPARγassay; GW501516 (prepared as described in Sznaidman et al. Bioorg. Med. Chem. Lett. (2003) 13:1517-1521) was used as a reference compound for the PPAR δ assay and GW7647 (obtained from Sigma) was used as a reference compound for the PPAR α assay. Luciferase activity was measured as a reporter of gene expression. Luciferase activity on the cell lysates using the Steady-Glo reagent was measured according to the manufacturers instructions.

For a further experiment, the target named is T2, mouse PPARδ (Mus musculus, UniProt P35396).
T2 construct: expressed in transfected cells; host or cells: HEK293T
T2 sequence (P35396 210-438 limits assumed): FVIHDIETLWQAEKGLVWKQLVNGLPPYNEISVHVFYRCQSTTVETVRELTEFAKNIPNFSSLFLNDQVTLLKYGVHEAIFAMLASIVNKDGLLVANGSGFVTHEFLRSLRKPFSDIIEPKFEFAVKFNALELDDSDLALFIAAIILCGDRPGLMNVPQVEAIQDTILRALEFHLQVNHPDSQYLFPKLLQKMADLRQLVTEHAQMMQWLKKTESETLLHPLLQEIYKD
Nature of the experiment: PPAR delta transactivation (GAL4 chimeric receptor luciferase reporter) assay. Particulars: GAL4-mPPAR δ chimeric receptor, pFR-Luc reporter, HEK293T cells, 20 hours incubation; read-out: Gene Activation Assay: EC50 (<10 μM) PPAR delta.
Description: as §1, §2
For orientation: A reporter such as luciferase makes a cellular process visible.

The next experiment has as its target T3, mouse PPARγ (Mus musculus, UniProt P37238).
T3 construct: expressed in transfected cells; host or cells: HEK293T
T3 sequence (P37238 238-503 limits assumed): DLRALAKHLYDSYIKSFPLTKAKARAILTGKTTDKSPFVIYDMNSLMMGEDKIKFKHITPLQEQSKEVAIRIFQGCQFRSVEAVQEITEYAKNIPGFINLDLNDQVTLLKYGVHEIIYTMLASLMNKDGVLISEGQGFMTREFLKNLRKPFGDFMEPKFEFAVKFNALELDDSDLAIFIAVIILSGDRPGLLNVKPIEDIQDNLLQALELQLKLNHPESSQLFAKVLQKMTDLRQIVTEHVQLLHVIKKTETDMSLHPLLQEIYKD
Nature of the experiment: PPAR gamma transactivation (GAL4 chimeric receptor luciferase reporter) assay. Particulars: GAL4-mPPARγ chimeric receptor, pFR-Luc reporter, HEK293T cells, 20 hours incubation; read-out: Gene Activation Assay: EC50 (<10 μM) PPAR gamma.
Description: as §1, §2

Among the data in patent US20060014785A1, “BICYCLIC, SUBSTITUTED TRIAZOLES AS MODULATORS OF PPAR AND METHODS OF THEIR PREPARATION” (Metabolex, Inc., priority 2004, published 2006) are EC50 values, retold here.

Turning to `Cc1nn(-c2ccc(C(F)(F)F)cc2)nc1COc1ccc2c(c1)OCC2CC(=O)O` (stereo not drawn) [Compound 700, {6-[5-Methyl-2-(4-trifluoromethyl-phenyl)-2H-[1,2,3]triazol-4-ylmethoxy]-2,3-dihydro-benzofuran-3-yl}-acetic acid], the EC50 at mouse PPAR α was above 10 µM; at mouse PPARδ it was below 10 µM; on mouse PPARγ it was above 30 µM.

For the compound `Cc1nn(-c2ccc(C(F)(F)F)cc2)nc1COc1ccc2c(CC(=O)O)coc2c1` [Compound 160, {6-[5-Methyl-2-(4-trifluoromethyl-phenyl)-2H-[1,2,3]triazol-4-ylmethoxy]-benzofuran-3-yl}-acetic acid], the figures for the EC50 on mouse PPAR α, at mouse PPARδ and at mouse PPARγ were above 10 µM, below 10 µM and above 10 µM, respectively.

For the compound `Cc1nn(-c2ccc(C(F)(F)F)cc2)nc1COc1ccc2ccn(CC(=O)O)c2c1` [Compound 130, {6-[5-Methyl-2-(4-trifluoromethyl-phenyl)-2H-[1,2,3]triazol-4-ylmethoxy]-indol-1-yl}-acetic acid], the EC50 on mouse PPAR α, at mouse PPARδ and at mouse PPARγ was below 10 µM throughout.

As to `Cc1nn(-c2ccc(C(F)(F)F)cc2)nc1COc1ccc2c(ccn2CC(=O)O)c1` [Compound 20, {5-[5-Methyl-2-(4-trifluoromethyl-phenyl)-2H-[1,2,3]triazol-4-ylmethoxy]-indol-1-yl}-acetic acid], the EC50 at mouse PPAR α was above 10 µM; at mouse PPARδ it was below 10 µM; on mouse PPARγ, above 30 µM.
